Measured values reported in patent US20260000672A1, “HISTONE DEACETYLASE INHIBITORS FOR USE IN IMMUNOTHERAPY” (Viracta Subsidiary, Inc., priority 2016, published 2026).

Assays:
BALB/c splenocytes = experiment: FACS analysis of BALB/c splenocytes after 24 hours with test agents; type: cell-based, mouse; details: for CD45+ CD3+ CD4+ / CD45+ CD3+ CD4+ CD25+ / CD45+ CD3+ CD4+ FoxP3+ / CD45+ CD3+ CD4+ FoxP3+, CD25+ / CD45+ CD3+ CD4+ FoxP3+, CD25− / CD45+ CD3+ CD4+ FoxP3− CD25+ / CD45± / Live / CD45+ CD3+: 24 hours
From the text: FACS analysis consisted of the following markers: live/dead, CD45, CD3, CD4, CD25 and FOXP3.

[1] = test system: breast cancer cell line MCF-7; details: cited from earlier work
mouse fibroblasts = details: cited from earlier work
[2] = 1 uM, n=5, mean (SD in the line below)

## Nc1ccccc1NC(=O)c1ccc(CNC(=O)OCc2cccnc2)cc1 [Entinostat, reference compound]
BALB/c splenocytes; 1 uM, n=5
  CD45+ CD3+ CD4+: 38.5%
  CD45+ CD3+ CD4+ CD25+: 10.4%
  CD45+ CD3+ CD4+ FoxP3+: 10.1%
  CD45+ CD3+ CD4+ FoxP3+, CD25+: 5.12%
  CD45+ CD3+ CD4+ FoxP3+, CD25−: 2.33%
  CD45+ CD3+ CD4+ FoxP3− CD25+: 4.57%
  CD45±: 99.1%
BALB/c splenocytes; [2]
  Live: 97.6%

## CCCC(=O)O [butyrate]
[1]
  cellular proliferation: induces a block in cellular proliferation
Mouse fibroblasts
  cell cycle: block the cell cycle in the G1 phase

## O=C(NO)c1cnc(N2CC3C(C2)C3NCc2ccc3cc(F)ccc3n2)nc1 (stereo not shown) [VRx-3996, 2-(6-{[(6-Fluoroquinolin-2-yl)methyl]amino}-3-azabicyclo[3.1.0]hex-3-yl)-N-hydroxypyrimidine-5-carboxamide]
BALB/c splenocytes; 1 nM, n=5
  CD45+ CD3+: 46.9%
  CD45+ CD3+ CD4+: 32.4%
  CD45+ CD3+ CD4+ CD25+: 7.93%
  CD45+ CD3+ CD4+ FoxP3+: 12%
  CD45+ CD3+ CD4+ FoxP3+, CD25+: 6.2%
  CD45+ CD3+ CD4+ FoxP3+, CD25−: 4.47%
  CD45+ CD3+ CD4+ FoxP3− CD25+: 1.14%
  CD45±: 98.6%
  Live: 98.4%
BALB/c splenocytes; 100 nM, n=5
  CD45+ CD3+: 94%
  CD45+ CD3+ CD4+: 75.3%
  CD45+ CD3+ CD4+ CD25+: 1.89%
  CD45+ CD3+ CD4+ FoxP3+: 1.62%
  CD45+ CD3+ CD4+ FoxP3+, CD25+: 0.064%
  CD45+ CD3+ CD4+ FoxP3+, CD25−: 0.34%
  CD45+ CD3+ CD4+ FoxP3− CD25+: 1.22%
  CD45±: 99.6%
  Live: 91.4%
BALB/c splenocytes; 500 nM, n=5
  CD45+ CD3+: 94%
  CD45+ CD3+ CD4+: 80.6%
  CD45+ CD3+ CD4+ CD25+: 3.03%
  CD45+ CD3+ CD4+ FoxP3+: 2.36%
  CD45+ CD3+ CD4+ FoxP3+, CD25+: 0.22%
  CD45+ CD3+ CD4+ FoxP3+, CD25−: 0.47%
  CD45+ CD3+ CD4+ FoxP3− CD25+: 1.69%
  CD45±: 99.5%
  Live: 87.2%
BALB/c splenocytes; 1 uM, n=5
  CD45+ CD3+: 94.7%
  CD45+ CD3+ CD4+: 82.2%
  CD45+ CD3+ CD4+ CD25+: 3.57%
  CD45+ CD3+ CD4+ FoxP3+: 3.85%
  CD45+ CD3+ CD4+ FoxP3+, CD25+: 0.14%
  CD45+ CD3+ CD4+ FoxP3+, CD25−: 0.8%
  CD45+ CD3+ CD4+ FoxP3− CD25+: 1.96%
  CD45±: 99.6%
BALB/c splenocytes; [2]
  Live: 84.7%
BALB/c splenocytes; compared to entinostat at 1 μM
  reduction in FoxP3, CD25+ T cells: ~47 fold
BALB/c splenocytes; seen at least as low as
  concentration at which the suppressive effect on FoxP3+, CD25+ T cells was seen: ≤ 100 nM
BALB/c splenocytes; striking when compared to entinostat
  effect on CD4+, CD25+, and FoxP3+ regulatory cells: specifically reduces
